Biological target: IKZF2 (Homo sapiens (Human), UniProt Q96SW2+Q9UKS7)
Test: IKZF2 HiBiT Assay (Jurkat-IKZF2-HiBiT cell line)
Type: cell-based
Details: Jurkat-IKZF2-HiBiT cells, 24 hours; for DC50: read-out: HiBit assay degradation analysis DC50; for Dmax: read-out: HiBit assay degradation analysis Dmax
Procedure, shortened: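 Jurkat cells carrying HiBiT-tagged IKZF2 were exposed to serially diluted compound for 24 h at 37 °C. Remaining IKZF2 was measured by Nano-Glo HiBiT lytic luminescence after 10-20 min at room temperature. Signal was normalized to DMSO, and IC50 came from a four-parameter variable-slope fit.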

Sequence of IKZF2 (Q9UKS7 whole entry): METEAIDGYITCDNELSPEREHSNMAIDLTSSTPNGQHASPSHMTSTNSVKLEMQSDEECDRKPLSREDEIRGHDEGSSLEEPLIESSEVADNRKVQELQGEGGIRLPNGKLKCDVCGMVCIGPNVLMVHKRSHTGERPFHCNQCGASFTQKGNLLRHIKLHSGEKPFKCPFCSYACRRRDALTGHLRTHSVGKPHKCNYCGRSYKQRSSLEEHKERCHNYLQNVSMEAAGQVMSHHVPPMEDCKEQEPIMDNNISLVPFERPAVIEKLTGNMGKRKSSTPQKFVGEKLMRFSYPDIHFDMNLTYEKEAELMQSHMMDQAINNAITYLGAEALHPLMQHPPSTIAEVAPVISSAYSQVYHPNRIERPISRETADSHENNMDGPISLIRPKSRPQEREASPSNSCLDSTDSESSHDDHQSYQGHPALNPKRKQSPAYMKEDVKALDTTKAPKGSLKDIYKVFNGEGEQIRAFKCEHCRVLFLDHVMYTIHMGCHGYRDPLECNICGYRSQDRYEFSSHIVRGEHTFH
Sequence of IKZF2 (Q96SW2 whole entry): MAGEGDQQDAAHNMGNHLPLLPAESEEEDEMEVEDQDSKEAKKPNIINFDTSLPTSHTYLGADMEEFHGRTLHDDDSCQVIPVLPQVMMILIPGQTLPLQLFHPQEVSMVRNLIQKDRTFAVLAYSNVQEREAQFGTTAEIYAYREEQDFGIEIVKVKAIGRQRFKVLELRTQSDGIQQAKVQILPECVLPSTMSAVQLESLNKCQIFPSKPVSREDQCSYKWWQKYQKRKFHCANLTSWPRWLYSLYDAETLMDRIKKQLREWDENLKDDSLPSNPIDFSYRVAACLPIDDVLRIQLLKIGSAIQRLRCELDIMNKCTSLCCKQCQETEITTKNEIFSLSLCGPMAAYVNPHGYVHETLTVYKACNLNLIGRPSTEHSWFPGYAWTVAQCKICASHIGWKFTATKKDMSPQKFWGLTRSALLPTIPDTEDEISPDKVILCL
Sequence of IKZF2 (Q16531 whole entry partner): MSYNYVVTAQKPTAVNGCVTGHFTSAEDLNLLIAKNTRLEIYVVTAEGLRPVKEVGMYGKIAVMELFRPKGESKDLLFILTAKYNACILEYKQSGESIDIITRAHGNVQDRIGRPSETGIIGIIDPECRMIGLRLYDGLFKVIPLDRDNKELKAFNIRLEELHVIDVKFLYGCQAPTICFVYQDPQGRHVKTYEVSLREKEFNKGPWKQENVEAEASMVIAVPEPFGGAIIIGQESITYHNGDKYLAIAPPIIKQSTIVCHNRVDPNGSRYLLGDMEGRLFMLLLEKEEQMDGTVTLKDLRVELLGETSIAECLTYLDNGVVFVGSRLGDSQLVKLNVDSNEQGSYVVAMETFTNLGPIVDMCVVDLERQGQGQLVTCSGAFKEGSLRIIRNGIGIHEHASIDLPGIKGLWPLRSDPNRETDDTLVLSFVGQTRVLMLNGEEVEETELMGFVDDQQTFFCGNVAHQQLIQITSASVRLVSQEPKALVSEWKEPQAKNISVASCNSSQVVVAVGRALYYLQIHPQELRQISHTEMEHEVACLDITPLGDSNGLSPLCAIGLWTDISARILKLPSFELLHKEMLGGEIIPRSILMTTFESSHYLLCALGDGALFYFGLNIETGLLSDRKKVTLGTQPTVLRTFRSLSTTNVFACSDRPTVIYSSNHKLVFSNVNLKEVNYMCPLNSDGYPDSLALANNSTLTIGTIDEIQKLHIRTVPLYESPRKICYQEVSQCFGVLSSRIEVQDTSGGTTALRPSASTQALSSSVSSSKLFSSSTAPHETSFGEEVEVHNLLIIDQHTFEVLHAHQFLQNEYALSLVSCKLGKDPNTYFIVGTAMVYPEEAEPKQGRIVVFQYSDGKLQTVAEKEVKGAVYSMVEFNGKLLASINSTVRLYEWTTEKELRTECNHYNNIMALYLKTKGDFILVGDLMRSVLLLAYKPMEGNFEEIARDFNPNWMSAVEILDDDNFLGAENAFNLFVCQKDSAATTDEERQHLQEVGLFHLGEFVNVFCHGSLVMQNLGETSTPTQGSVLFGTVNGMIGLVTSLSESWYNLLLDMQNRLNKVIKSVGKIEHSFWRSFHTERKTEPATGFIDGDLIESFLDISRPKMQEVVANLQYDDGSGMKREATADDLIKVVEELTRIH

Row | Compound | DC50 | Dmax
1 | O=C1CCC(N2Cc3c(ccc4c3OCCC43CCN(Cc4ccccc4)CC3)C2=O)C(=O)N1 (centres unmarked) [Compound A13, 3-(1-benzyl-7′-oxo-2′,3′,7′,9′-tetrahydro-8′H-spiro[piperidine-4,4′-pyrano[2,3-e]isoindol]-8′-yl)piperidine-2,6-dione] | > 500 nM | < 40%
2 | CS(=O)(=O)c1cccc(CN2CCC3(CC2)COc2c3ccc3c2CN(C2CCC(=O)NC2=O)C3=O)c1 (centres unmarked) [Compound A235, 3-(1′-(3-(methylsulfonyl)benzyl)-6-oxo-6,8-dihydro-2H,7H-spiro[furo[2,3-e]isoindole-3,4′-piperidin]-7-yl)piperidine-2,6-dione] | > 500 nM | < 40%
3 | COc1ccc(C(=O)Nc2cccc(CN3CCC4(CC3)OCc3c4ccc4c3CN(C3CCC(=O)NC3=O)C4=O)c2)cc1 (centres unmarked) [Compound A262] | < 50 nM | 60 to 80%
4 | O=C1CCC(N2Cc3c(ccc4c3OCC43CCN(Cc4ccc(-n5cccn5)cc4)CC3)C2=O)C(=O)N1 (centres unmarked) [Compound A222, 3-(1′-(4-(1H-pyrazol-1-yl)benzyl)-6-oxo-6,8-dihydro-2H,7H-spiro[furo[2,3-e]isoindole-3,4′-piperidin]-7-yl)piperidine-2,6-dione] | > 500 nM | 40 to 60%
5 | Cn1cc(CN2CCC3(CC2)COc2c3ccc3c2CN(C2CCC(=O)NC2=O)C3=O)c(-c2ccccc2)n1 (centres unmarked) [Compound A256, 3-(1′-((1-methyl-3-phenyl-1H-pyrazol-4-yl)methyl)-6-oxo-6,8-dihydro-2H,7H-spiro[furo[2,3-e]isoindole-3,4′-piperidin]-7-yl)piperidine-2,6-dione] | > 500 nM | < 40%
6 | Cc1nnc(-c2cccc(CN3CCC4(CC3)COc3c4ccc4c3CN(C3CCC(=O)NC3=O)C4=O)c2)o1 (centres unmarked) [Compound A151, 3-(1′-(3-(5-methyl-1,3,4-oxadiazol-2-yl)benzyl)-6-oxo-6,8-dihydro-2H,7H-spiro[furo[2,3-e]isoindole-3,4′-piperidin]-7-yl)piperidine-2,6-dione] | 200 to 500 nM | 40 to 60%
7 | O=C1CCC(N2Cc3c(ccc4c3OCC43CCN(Cc4ccccc4-n4ccnc4)CC3)C2=O)C(=O)N1 (centres unmarked) [Compound A149, 3-(1′-(2-(1H-imidazol-1-yl)benzyl)-6-oxo-6,8-dihydro-2H,7H-spiro[furo[2,3-e]isoindole-3,4′-piperidin]-7-yl)piperidine-2,6-dione] | > 500 nM | < 40%
8 | O=C1CCC(N2Cc3c(ccc4c3OCC43CCN(Cc4cc(C(F)(F)F)cc5[nH]ccc45)CC3)C2=O)C(=O)N1 (centres unmarked) [Compound A114, 3-(6-oxo-1′-((6-(trifluoromethyl)-1H-indol-4-yl)methyl)-6,8-dihydro-2H,7H-spiro[furo[2,3-e]isoindole-3,4′-piperidin]-7-yl)piperidine-2,6-dione] | 50 to 200 nM | 60 to 80%
9 | CS(=O)(=O)c1ccccc1CN1CCC2(CC1)COc1c2ccc2c1CN(C1CCC(=O)NC1=O)C2=O (centres unmarked) [Compound A234, 3-(1′-(2-(methylsulfonyl)benzyl)-6-oxo-6,8-dihydro-2H,7H-spiro[furo[2,3-e]isoindole-3,4′-piperidin]-7-yl)piperidine-2,6-dione] | > 500 nM | < 40%
10 | O=C1CCC(N2Cc3c(ccc4c3OCC43CCN(Cc4cccc5cccc(F)c45)CC3)C2=O)C(=O)N1 (centres unmarked) [Compound A50, 3-(1′-((8-fluoronaphthalen-1-yl)methyl)-6-oxo-6,8-dihydro-2H,7H-spiro[furo[2,3-e]isoindole-3,4′-piperidin]-7-yl)piperidine-2,6-dione] | < 50 nM | 60 to 80%
11 | O=C1CCC(N2Cc3c(ccc4c3OCC43CCN(Cc4ccccc4-n4cccn4)CC3)C2=O)C(=O)N1 (centres unmarked) [Compound A156, 3-(1′-(2-(1H-pyrazol-1-yl)benzyl)-6-oxo-6,8-dihydro-2H,7H-spiro[furo[2,3-e]isoindole-3,4′-piperidin]-7-yl)piperidine-2,6-dione] | > 500 nM | < 40%
12 | O=C1CCC(N2Cc3c(ccc4c3OCC43CCN(CC4CCOCC4)CC3)C2=O)C(=O)N1 (centres unmarked) [Compound A20, 3-(6-oxo-1′-((tetrahydro-2H-pyran-4-yl)methyl)-6,8-dihydro-2H,7H-spiro[furo[2,3-e]isoindole-3,4′-piperidin]-7-yl)piperidine-2,6-dione] | > 500 nM | < 40%
13 | O=C1CCC(N2Cc3c(ccc4c3OCC43CCN(Cc4cccc5ccoc45)CC3)C2=O)C(=O)N1 (centres unmarked) [Compound A115, 3-(1′-(benzofuran-7-ylmethyl)-6-oxo-6,8-dihydro-2H,7H-spiro[furo[2,3-e]isoindole-3,4′-piperidin]-7-yl)piperidine-2,6-dione] | 50 to 200 nM | 60 to 80%
14 | O=C1CCC(N2Cc3c(ccc4c3OCC43CCN(Cc4cnn(S(=O)(=O)c5ccc(F)cc5)c4)CC3)C2=O)C(=O)N1 [Compound A354, (S)-3-(1′-((1-((4-fluorophenyl)sulfonyl)-1H-pyrazol-4-yl)methyl)-6-oxo-6,8-dihydro-2H,7H-spiro[furo[2,3-e]isoindole-3,4′-piperidin]-7-yl)piperidine-2,6-dione] | > 500 nM | 
15 | [2H]C([2H])([2H])n1cc2ccc(CN3CCC4(CC3)COc3c4ccc4c3CN([C@H]3CCC(=O)NC3=O)C4=O)cc2n1 [Compound A301, (S)-3-(1′-((2-(methyl-d3)-2H-indazol-6-yl)methyl)-6-oxo-6,8-dihydro-2H,7H-spiro[furo[2,3-e]isoindole-3,4′-piperidin]-7-yl)piperidine-2,6-dione] | < 50 nM | 60 to 80%
16 | O=C1CC[C@H](N2Cc3c(ccc4c3OCC43CCN(Cc4cccc(-c5cnn([C@H]6CCOC6)c5)c4)CC3)C2=O)C(=O)N1 [Compound A269, (S)-3-(6-oxo-1′-(3-(1-((S)-tetrahydrofuran-3-yl)-1H-pyrazol-4-yl)benzyl)-6,8-dihydro-2H,7H-spiro[furo[2,3-e]isoindole-3,4′-piperidin]-7-yl)piperidine-2,6-dione] | 50 to 200 nM | 60 to 80%
17 | O=C1CCC(N2Cc3c(ccc4c3OCC43CCN(Cc4ccn(-c5ccc(F)cc5)n4)CC3)C2=O)C(=O)N1 (centres unmarked) [Compound A322, 3-(1′-((1-(4-fluorophenyl)-1H-pyrazol-3-yl)methyl)-6-oxo-6,8-dihydro-2H,7H-spiro[furo[2,3-e]isoindole-3,4′-piperidin]-7-yl)piperidine-2,6-dione] | > 500 nM | < 40%
18 | [2H]C([2H])([2H])n1cc(-c2cccc(CN3CCC4(CC3)COc3c4ccc4c3CN([C@H]3CCC(=O)NC3=O)C4=O)c2)cn1 [Compound A291, (S)-3-(1′-(3-(1-(methyl-d3)-1H-pyrazol-4-yl)benzyl)-6-oxo-6,8-dihydro-2H,7H-spiro[furo[2,3-e]isoindole-3,4′-piperidin]-7-yl)piperidine-2,6-dione] | < 50 nM | 60 to 80%
19 | CCOc1ccc(CN2CCC3(CC2)COc2c3ccc3c2CN(C2CCC(=O)NC2=O)C3=O)cn1 (centres unmarked) [Compound A202, 3-(1′-((6-ethoxypyridin-3-yl)methyl)-6-oxo-6,8-dihydro-2H,7H-spiro[furo[2,3-e]isoindole-3,4′-piperidin]-7-yl)piperidine-2,6-dione] | > 500 nM | < 40%
20 | O=C1CCC(N2Cc3c(ccc4c3OCC43CCN(Cc4ccc5c(cnn5CCO)c4)CC3)C2=O)C(=O)N1 (centres unmarked) [Compound A344, 3-(1′-((1-(2-hydroxyethyl)-1H-indazol-5-yl)methyl)-6-oxo-6,8-dihydro-2H,7H-spiro[furo[2,3-e]isoindole-3,4′-piperidin]-7-yl)piperidine-2,6-dione] | > 500 nM | 40 to 60%
21 | O=C1CCC(N2Cc3c(ccc4c3OCC43CCN(Cc4cnn(-c5ccccc5Cl)c4)CC3)C2=O)C(=O)N1 (centres unmarked) [Compound A331, 3-(1′-((1-(2-chlorophenyl)-1H-pyrazol-4-yl)methyl)-6-oxo-6,8-dihydro-2H,7H-spiro[furo[2,3-e]isoindole-3,4′-piperidin]-7-yl) piperidine-2,6-dione] | > 500 nM | < 40%
22 | CC(C)(c1ccccc1)n1cc(CN2CCC3(CC2)COc2c3ccc3c2CN([C@H]2CCC(=O)NC2=O)C3=O)cn1 [Compound A346, (S)-3-(6-oxo-1′-((1-(2-phenylpropan-2-yl)-1H-pyrazol-4-yl)methyl)-6,8-dihydro-2H,7H-spiro[furo[2,3-e]isoindole-3,4′-piperidin]-7-yl)piperidine-2,6-dione] | < 50 nM | 60 to 80%
23 | O=C1CCC(N2Cc3c(ccc4c3OCC43CCN(Cc4ccn(-c5ccccc5)n4)CC3)C2=O)C(=O)N1 (centres unmarked) [Compound A251, 3-(6-oxo-1′-((1-phenyl-1H-pyrazol-3-yl)methyl)-6,8-dihydro-2H,7H-spiro[furo[2,3-e]isoindole-3,4′-piperidin]-7-yl)piperidine-2,6-dione] | > 500 nM | < 40%
24 | COc1cc(CN2CCC3(CC2)COc2c3ccc3c2CN([C@H]2CCC(=O)NC2=O)C3=O)cc(-c2cnn(C3COC3)c2)c1 [Compound A277] | < 50 nM | > 80%
25 | O=C1CCC(N2Cc3c(ccc4c3OCC43CCN(Cc4cccc5[nH]cc(Cl)c45)CC3)C2=O)C(=O)N1 (centres unmarked) [Compound A141, 3-(1′-((3-chloro-1H-indol-4-yl)methyl)-6-oxo-6,8-dihydro-2H,7H-spiro[furo[2,3-e]isoindole-3,4′-piperidin]-7-yl)piperidine-2,6-dione] | < 50 nM | 60 to 80%
26 | O=C1CCC(N2Cc3c(ccc4c3OCC43CCN(Cc4cnn(C5CC5)c4)CC3)C2=O)C(=O)N1 (centres unmarked) [Compound A230, 3-(1′-((1-cyclopropyl-1H-pyrazol-4-yl)methyl)-6-oxo-6,8-dihydro-2H,7H-spiro[furo[2,3-e]isoindole-3,4′-piperidin]-7-yl)piperidine-2,6-dione] | > 500 nM | 40 to 60%
27 | CCOc1cccc(CN2CCC3(CC2)COc2c3ccc3c2CN(C2CCC(=O)NC2=O)C3=O)n1 (centres unmarked) [Compound A252, 3-(1′-((6-ethoxypyridin-2-yl)methyl)-6-oxo-6,8-dihydro-2H,7H-spiro[furo[2,3-e]isoindole-3,4′-piperidin]-7-yl)piperidine-2,6-dione] | > 500 nM | < 40%
